# “Also recorded” adds a separate entry of the source. Like-named read-outs stand apart in the source and are kept apart here. Numbered stars: 1 amine (or outer) side, 2 acyl side, 3 side chain; on linkers, the order of the positions; unused ones are H or OH. Square brackets hold non-standard residues; d marks the D form. Peptide text beside a SMILES is read from it. X3 = CCCCCCOC(=O)N=C(NCCC[C@H](C(=O)[*:2])N(C)[*:1])NC(=O)OCCCCCC; X1 = CCCCCCOC(=O)N=C(NCCC[C@@H](N[*:1])C(=O)[*:2])NC(=O)OCCCCCC; X2 = CCCCCCOC(=O)N=C(N)NCCC[C@H](N[*:1])C(=O)[*:2]; dNMeV = CN[C@@H](C(=O)O)C(C)C; NMeA = CN[C@@H](C)C(=O)O
# How the values were obtained:
# [1] = Caco-2 permeability study (Examples 1, 2 and 4, Table 3); assay type: in vitro ADME, human; details: for efflux ratio: Table 3; for Papp B→A at 150 min, 10 μg/ml / Papp A→B at 150 min, 10 μg/ml: human
# Method: The culture growth medium consisted of DMEM supplemented with 10% heat-inactivated FBS, 1% MEM-NEAA, 2 mM 1-glutamine, 1 mM sodium pyruvate, 50,000 units Penicillin G Sodium and 50 mg Streptomycin Sulfate (Biological Industries). The medium was replaced every other day.
# Cells (passage 55-60) were seeded at density of 25×10^5 cells/cm^2 on untreated culture inserts of polycarbonate membrane with 0.4 μm pores and surface area of 1.1 cm^2. Culture inserts containing Caco-2 monolayer were placed in 12 mm transwell plates (Corning). Culture medium was replaced every other day. Transepithelial Electrical Resistance (TEER) values were measured by Millicell ERS-2 System (Millipore) a week after seeding up to experiment day (21-23 days) to ensure proliferation and differentiation of the cells. When the cells were fully differentiated and TEER values became stable (200-500 Ω·cm^2). The TEER values were compared to control inserts containing only the medium.
# The experiment was initiated by replacing the medium from both sides by apical (600 μl) and basolateral (1500 μl) buffers, both warmed to 37° C. The Cells were incubated with the buffers solutions for 30 min at 37° C. on a shaker (100 cycles/min). The apical buffer was replaced by apical buffer containing 10 μg/ml of the cyclic peptides of the invention. 50 μl samples were taken from the apical side immediately at the beginning of the experiment, resulting in 550 μl apical volume during the experiment.
# Permeability Coefficient (Papp) for each compound was calculated from the linear plot of drug accumulated versus time, using the following equation:
# Where dq/dt is steady state appearance rate of the compound on the receiver side, Co is the initial concentration of the drug on the donor side, and A is the exposed tissue surface area (1.1 cm^2).
# Transport studies were performed through the Caco-2 monolayer mounted in an Ussing-type chamber set-up with continuous trans-epithelial electrical resistance (TEER) measurements to assure TEER between 800 and 1200 Sr cm^2. HBSS supplemented with 10 mM MES and adjusted to pH 6.5 were used as transport medium in the donor compartment and pH 7.4 in the acceptor compartment. The donor solution contained the test compound.
# Permeability mechanism of compounds is studied by evaluating the Papp of a compound from the apical to the basolateral (A-to-B) membrane and its Papp from the basolateral to the apical membrane (B-to-A). The A-to-B assay simulates passive and transporter-mediated permeability. The B-to-A assay is essential complementary experiment indicative of the activity of P-gp. The ratio of the A-to-B and B-to A Papps (efflux ratio) is calculated to determine the permeability mechanism.
# [2] = for Papp A→B: Caco-2, Papp (AB); for Papp B→A: Caco-2, Papp (BA)
# in vitro = details: human, Caco-2, pH 7.4
# [3] = pH 7.4, LogD
# human αvβ3-integrin = molecular target: T1, human αvβ3-integrin (Homo sapiens, UniProt P05106+P06756); experiment: Solid-phase integrin binding assay, αvβ3
# T1 construct: purchased R&D
# T1 sequence (P06756 31-992 limits assumed): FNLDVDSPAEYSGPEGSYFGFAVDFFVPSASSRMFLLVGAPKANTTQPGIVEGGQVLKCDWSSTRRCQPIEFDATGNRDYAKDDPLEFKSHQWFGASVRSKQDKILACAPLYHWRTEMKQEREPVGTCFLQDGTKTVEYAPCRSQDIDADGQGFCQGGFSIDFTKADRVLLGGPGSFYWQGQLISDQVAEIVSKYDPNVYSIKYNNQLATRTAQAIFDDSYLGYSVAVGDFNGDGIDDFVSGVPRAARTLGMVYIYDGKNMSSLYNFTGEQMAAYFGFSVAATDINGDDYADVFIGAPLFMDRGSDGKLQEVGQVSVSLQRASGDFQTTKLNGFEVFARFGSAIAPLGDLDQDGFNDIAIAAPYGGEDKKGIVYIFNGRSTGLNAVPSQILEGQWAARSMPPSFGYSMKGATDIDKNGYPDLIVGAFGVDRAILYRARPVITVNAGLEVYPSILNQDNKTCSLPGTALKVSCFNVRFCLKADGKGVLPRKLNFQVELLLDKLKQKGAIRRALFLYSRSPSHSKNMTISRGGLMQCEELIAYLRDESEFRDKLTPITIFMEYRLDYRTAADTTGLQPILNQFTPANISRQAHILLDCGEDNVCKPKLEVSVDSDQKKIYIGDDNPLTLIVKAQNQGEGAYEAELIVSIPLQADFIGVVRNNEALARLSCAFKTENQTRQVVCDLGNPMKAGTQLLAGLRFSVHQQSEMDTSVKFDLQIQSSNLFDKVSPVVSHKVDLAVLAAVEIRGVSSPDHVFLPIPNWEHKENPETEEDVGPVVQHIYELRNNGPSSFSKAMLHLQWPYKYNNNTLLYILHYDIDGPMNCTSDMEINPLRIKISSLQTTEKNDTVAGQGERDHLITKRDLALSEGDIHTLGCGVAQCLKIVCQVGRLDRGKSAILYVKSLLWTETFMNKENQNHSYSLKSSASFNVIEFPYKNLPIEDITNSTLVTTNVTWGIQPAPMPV
# T1 sequence (P05106 27-718 limits assumed): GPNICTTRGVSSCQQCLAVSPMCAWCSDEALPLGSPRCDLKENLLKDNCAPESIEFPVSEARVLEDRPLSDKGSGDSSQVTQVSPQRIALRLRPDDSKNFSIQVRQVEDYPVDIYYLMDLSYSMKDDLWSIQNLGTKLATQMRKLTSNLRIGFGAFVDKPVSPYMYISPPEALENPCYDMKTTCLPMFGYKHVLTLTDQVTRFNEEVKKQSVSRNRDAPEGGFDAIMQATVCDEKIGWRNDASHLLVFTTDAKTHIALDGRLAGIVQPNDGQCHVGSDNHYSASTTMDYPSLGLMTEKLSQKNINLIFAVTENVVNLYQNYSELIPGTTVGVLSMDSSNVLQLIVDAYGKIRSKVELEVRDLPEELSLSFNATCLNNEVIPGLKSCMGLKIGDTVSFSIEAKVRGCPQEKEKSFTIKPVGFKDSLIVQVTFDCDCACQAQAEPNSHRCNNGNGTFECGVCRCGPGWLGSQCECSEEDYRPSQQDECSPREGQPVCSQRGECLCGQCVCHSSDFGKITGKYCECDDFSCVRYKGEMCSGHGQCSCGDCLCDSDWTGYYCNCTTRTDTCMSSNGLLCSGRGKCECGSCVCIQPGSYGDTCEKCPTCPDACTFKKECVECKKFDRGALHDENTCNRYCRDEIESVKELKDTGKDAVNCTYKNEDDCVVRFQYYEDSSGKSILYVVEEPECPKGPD
# [4] = Log D, octanol/PBS distribution coefficient; details: for logD at 1 h: pH 7.4, LogD
# Caco-2 cells = experiment: Caco-2 bidirectional permeability with or without verapamil (Example 6)
# [5] = as above; details: human, 90 min, without verapamil; for Papp A→B at 90 min, 10 μM: Caco-2, pH 7.4, Papp (AB); for Papp B→A at 90 min, 10 μM: Caco-2, pH 7.4, Papp (BA)
# [6] = Metabolic stability in rat plasma; assay type: in vitro ADME; details: 37° C., up to 90 minutes
# Method: The enzymatic reactions were performed as follows: 2 mM stock solutions of the tested compounds were diluted with serum or purified brush border membrane vesicles (BBMVs) solution to a final concentration of 0.5 mM. During incubation at 37° C. samples were taken for a period of 90 minutes. The enzymatic reaction was stopped by adding 1:1 v/v of ice cold acetonitrile and centrifuge (4000 g, 10 min) before analysis. Preparation of BBMVs: The BBMVs was prepared from combined duodenum, jejunum, and upper ileum (male Wistar rats) by a Ca^++ precipitation method. Purification of the BBMVs was assayed using GGT, LAP and alkaline phosphatase as membrane enzyme markers
# Peptides 12 and 12p were subjected to rat plasma and followed their degradation. Rat plasma is known to be rich with esterases.
# [7] = Pharmacokinetic study in rats after oral administration; assay type: in vivo, Wistar rats; details: rat, oral 5 mg/kg; peptide 12 measured in plasma; 12P given as dispersed 12P SNEDDS
# Method: In Vivo Studies. Male Wistar rats (Harlan, Israel), 275-300 g in weight, were used for all surgical procedures. Animals were anesthetized for the period of surgery by intraperitoneal injection of 1 mL/kg of ketamine/xylazine solution (9:1), placed on a heated surface, and maintained at 37° C. (Harvard Apparatus Inc., Holliston, MA). An indwelling cannula was placed in the right jugular vein of each animal for systemic blood sampling, by a method described before. The cannula was tunneled beneath the skin and exteriorized at the dorsal part of the neck. After completion of the surgical procedure, the animals were transferred to cages to recover overnight (12-18 h). During this recovery period, food but not water was deprived. Throughout the experiment, free access to food was available 4 h post oral administration. Animals were randomly assigned to the different experimental groups. […] Dispersed 12P SNEDDS (5 mg/kg) was administered to the animals by oral gavage (n=3). Systemic blood samples (0.35 mL) were taken at 5 min predose, 20, 40, 60, 90, 180, 240, and 360 min postdose. To prevent dehydration, equal volumes of physiological solution were administered to the rats following each withdrawal of blood sample. Plasma was separated by centrifugation (5322 g, 10 min) and stored at −20° C. pending analysis. In the 12P pharmacokinetic study, the parent peptide, 12, was analytically determined.
# Pharmacokinetic Analysis. The area under the plasma concentration-time curve (AUC) was calculated by using the trapezoidal rule with extrapolation to infinity by dividing the last measured concentration by the elimination rate constant (kel). The elimination rate constant values were determined by a linear regression analysis using the last points on the logarithmic plot of the plasma concentration versus the time curve. Pharmacokinetic parameters, such Tmax, Cmax, clearance (CL), volume of distribution (V), and bioavailability, were calculated using noncompartmental analysis.
# Analytical Methods. Plasma or BBMV samples were spiked with metoprolol (1.5 μg/mL) as an internal standard. ACN was added to each sample (2:1) and vortex-mixed for 1 min. The samples were then centrifuged (14 635 g, 10 min), and the supernatant was transferred to fresh glass tubes and evaporated to dryness (Vacuum Evaporation System, Labconco, Kansas City, MO, USA). Then, the glass tubes were reconstituted in 80 μL of mobile phase and centrifuged a second time (14 635 g, 10 min). The amount of the compounds was determined using an HPLC-MS Waters 2695 Separation Module, equipped with a Micromass ZQ detector. The resulting solution was injected (10 μL) into the HPLC system. The system was conditioned as follows: for parent drug peptides (including 12), a Kinetex 2.6 μm HILIC 100 Å, 100 mm×2.1 mm column (Phenomenex, Torrance, CA, USA), an isocratic mobile phase, and an acetonitrile:water:ammonium acetate buffer 50 mM (70:10:20, v/v/v) was used; and for the prodrug peptides (including 12P), a Luna (Phenomenex) 3 μm C8 100 Å, 100 mm×2.0 mm column and an isocratic mobile phase of ACN:water supplemented with 0.1% formic acid (70:30, v/v) and a flow rate of 0.2 mL/min at 25° C. was used. The limit of quantification for all of the peptides and prodrugs was 25 ng/mL.
# The pharmacokinetic in-vivo study allows a further evaluation of the prodrug concept in the whole animal. The PK studies were performed in conscious Wistar male rats. An indwelling cannula was implanted in the jugular vein 24 hours before the PK experiment to allow full recovery of the animals from the surgical procedure. Animals (n=4) received either an IV bolus dose or oral dose of the investigated compound. Blood samples (with heparin, 15 U/ml) were collected at several time points for up to 6 hours post administration and was assayed by HPLC-MS method. Non-compartmental pharmacokinetic analysis was performed using WinNonlin software.
# [8] = Caco-2, Table 3, n = 3, read-out: Papp AB
# [9] = Caco-2, Table 3, n = 3, read-out: Papp BA
# [10] = pH 7.4, reported value (mean or bound)
smiles,measurement,setting,value
"CCCCCCOC(=O)N=C(NCCC[C@H]1NC(=O)[C@H](C)N(C)C(=O)[C@H](C)N(C)C(=O)[C@H](C)NC(=O)[C@H](CC(=O)OC)NC(=O)CNC1=O)NC(=O)OCCCCCC [Peptide 23P, c(r(Hoc)2GD(OMe)A*A*A)] (cyclo(A[NMeA][NMeA][X1]GD(OMe)))",Papp A→B,[1]; [8],1.77 ± 0.55 ×10⁻⁶ cm/s
same,Papp B→A,[1]; [9],74.8 ± 20.4 ×10⁻⁶ cm/s
same,efflux ratio,[1]; Caco-2,42.2
"CCCCCCOC(=O)N=C(NCCC[C@@H]1C(=O)NCC(=O)N[C@@H](CC(=O)OC)C(=O)N[C@@H](C)C(=O)N(C)[C@@H](C)C(=O)N[C@@H](C)C(=O)N1C)NC(=O)OCCCCCC [Peptide 5P, c(*r(Hoc)2GD(OMe)A*AA)] (cyclo(A[NMeA]A[X3]GD(OMe)))",Papp B→A,[1]; [9],22.1 ± 3.58 ×10⁻⁶ cm/s
same,Papp B→A,"[1]; Caco-2, running text, unit inferred, read-out: Caco-2 B-to-A Papp",21.2 ×10⁻⁶ cm/s
same,Papp A→B,"[1]; Caco-2, unit inferred, read-out: Caco-2 A-to-B Papp (converted)",0.6 ×10⁻⁶ cm/s
same,efflux ratio,[1]; Caco-2,36.7
"CCCCCCOC(=O)N=C(NCCC[C@@H]1NC(=O)[C@H](C(C)C)N(C)C(=O)[C@@H](Cc2ccccc2)NC(=O)[C@H](CC(=O)OC)NC(=O)CNC1=O)NC(=O)OCCCCCC [Cil.-P, c(f*VR(Hoc)2GD)]",Papp A→B,[2]; Mean,0.3 ×10⁻⁶ cm/s
same,Papp A→B,[2]; replicate 1,0.6 ×10⁻⁶ cm/s
same,Papp A→B,[2]; replicate 2,0.2 ×10⁻⁶ cm/s
same,Papp A→B,[2]; replicate 3,0.2 ×10⁻⁶ cm/s
same,Papp B→A,[2]; Mean,0.3 ×10⁻⁶ cm/s
same,Papp B→A,[2]; replicate 1,0.4 ×10⁻⁶ cm/s
same,Papp B→A,[2]; replicate 2,0.3 ×10⁻⁶ cm/s
same,Papp B→A,[2]; replicate 3,0.3 ×10⁻⁶ cm/s
same,"efflux ratio at 90 min, 10 µM",in vitro,1.1
same,"Permeability, replicate 1","PAMPA, pH 7.4",Outlier −8.1 Log10[10^−6 cm/s]
same,logD,[3]; [10],3.95
same,logD,"[3]; pH 7.4, single determinations",3.76
"C[C@@H]1NC(=O)[C@H](CC(=O)O)NC(=O)CNC(=O)[C@@H](CCCNC(=N)N)NC(=O)[C@H](C)N(C)C(=O)[C@H](C)N(C)C1=O [Peptide 23, c(rGDA*A*A)]","Papp B→A at 150 min, 10 μg/ml","[1]; Caco-2, Table 3, n = 3",1.34 ± 0.03 ×10⁻⁶ cm/s
same,"Papp A→B at 150 min, 10 μg/ml",[1]; [8],0.61 ± 0.09 ×10⁻⁶ cm/s
"C[C@@H]1NC(=O)[C@H](C)N(C)C(=O)[C@H](C)NC(=O)[C@H](CC(=O)O)NC(=O)CNC(=O)[C@@H](CCCNC(=N)N)N(C)C1=O [Peptide 5, c(*rGDA*AA)]","Papp A→B at 150 min, 10 μg/ml","[1]; Caco-2, running text, unit inferred, read-out: Caco-2 A-to-B Papp",0.3 ×10⁻⁶ cm/s
same,"Papp B→A at 150 min, 10 μg/ml","[1]; Caco-2, Table 3, n = 3",0.42 ± 0.11 ×10⁻⁶ cm/s
same,"Papp A→B at 150 min, 10 μg/ml",[1]; [8],0.38 ± 0.01 ×10⁻⁶ cm/s
CCCCCCOC(=O)N=C(N)NCCC[C@@H]1NC(=O)[C@@H](C(C)C)N(C)C(=O)[C@H](C)N(C)C(=O)[C@H](C)NC(=O)[C@H](CC(=O)OC)NC(=O)CNC1=O [#29P-Hoc] (cyclo(A[NMeA][dNMeV][X2]GD(OMe))),Papp A→B,[2]; Mean,0.3 ×10⁻⁶ cm/s
same,Papp A→B,[2]; replicate 1,0.3 ×10⁻⁶ cm/s
same,Papp A→B,[2]; replicate 2,0.3 ×10⁻⁶ cm/s
same,Papp A→B,[2]; replicate 3,0.2 ×10⁻⁶ cm/s
same,Papp B→A,[2]; Mean,0.3 ×10⁻⁶ cm/s
same,Papp B→A,[2]; replicate 1,0.2 ×10⁻⁶ cm/s
same,Papp B→A,[2]; replicate 2,0.2 ×10⁻⁶ cm/s
same,Papp B→A,[2]; replicate 3,0.3 ×10⁻⁶ cm/s
same,"efflux ratio at 90 min, 10 µM",in vitro,1
same,permeability in the PAMPA-GIT model system,,low permeability
same,logD,[3]; [10],1.85
same,logD,"[3]; pH 7.4, single determinations",1.91
"CC(C)[C@@H]1C(=O)N[C@@H](CCCNC(=N)N)C(=O)NCC(=O)N[C@@H](CC(=O)O)C(=O)N[C@@H](C)C(=O)N(C)[C@@H](C)C(=O)N1C [Peptide 29, c(*vRGDA*A)]","Papp B→A at 150 min, 10 μg/ml","[1]; Caco-2, Table 3, n = 3",0.15 ± 0.01 ×10⁻⁶ cm/s
same,"Papp A→B at 150 min, 10 μg/ml",[1]; [8],0.07 ± 0.01 ×10⁻⁶ cm/s
same,"affinity for αvβ3, in words",human αvβ3-integrin,subnanomolar affinity; also recorded: subnanomolar IC50
same,"LogD, pH 7.4, reported value (mean or bound)",[4]; octanol/PBS pH 7.4,<−1
same,logD at 1 h,"[4]; pH 7.4, reported value (mean or bound), octanol/PBS pH 7.4",< -1
same,logD at 1 h,"[4]; pH 7.4, single determinations, octanol/PBS pH 7.4, triplicate values",-1.75
same,"Net efflux (Papp (BA) / Papp (AB)), in the presence of Verapamil",Caco-2 cells; verapamil 100 μM,0.1
same,Net efflux (Papp (BA) / Papp (AB)),Caco-2 cells; without verapamil,0.4
same,"Papp A→B at 90 min, 10 μM","[5]; Mean, 10 μM",0.7 ×10⁻⁶ cm/s
same,"Papp A→B at 90 min, 10 μM","[5]; replicate 1, 10 μM",1 ×10⁻⁶ cm/s
same,"Papp A→B at 90 min, 10 μM","[5]; replicate 2, 10 μM",0.2 ×10⁻⁶ cm/s
same,"Papp A→B at 90 min, 10 μM","[5]; replicate 3, 10 μM",0.9 ×10⁻⁶ cm/s
same,"Papp B→A at 90 min, 10 μM","[5]; Mean, 10 μM",0.3 ×10⁻⁶ cm/s
same,"Papp B→A at 90 min, 10 μM","[5]; replicate 1, 10 μM",0.3 ×10⁻⁶ cm/s
same,"Papp B→A at 90 min, 10 μM","[5]; replicate 2, 10 μM",0.4 ×10⁻⁶ cm/s
same,"Papp B→A at 90 min, 10 μM","[5]; replicate 3, 10 μM",0.2 ×10⁻⁶ cm/s
"C[C@@H]1NC(=O)[C@H](CC(=O)O)NC(=O)CNC(=O)[C@H](CCCNC(=N)N)NC(=O)[C@@H](C)N(C)C(=O)[C@H](C)N(C)C1=O [Peptide 12, c(*aRGDA*A)]","Papp B→A at 150 min, 10 μg/ml","[1]; Caco-2, Table 3, n = 3",0.12 ± 0.01 ×10⁻⁶ cm/s
same,"Papp A→B at 150 min, 10 μg/ml",[1]; [8],0.04 ± 0.02 ×10⁻⁶ cm/s
same,"metabolic stability in rat plasma, in words",[6],remained stable
same,Kel,[7],0.04 ± 0.005 min⁻¹
"C[C@@H]1NC(=O)[C@H](CC(=O)O)NC(=O)CNC(=O)[C@H](CCCNC(=N)N)NC(=O)[C@@H](Cc2ccccc2)N(C)C(=O)[C@H](C)N(C)C1=O [Peptide 30, c(*fRGDA*A)]","affinity for αvβ3, in words",human αvβ3-integrin,subnanomolar affinity
same,IC50,human αvβ3-integrin; Table 1,0.6 ± 0.2 nM

# Reference: US11965041B2, “N-methylated cyclic peptides and their prodrugs” (TECHNISCHE UNIVERSITAET MUENCHEN, priority 2017, dated 2024)
